One block for each molecule: values may come before it. The source made the active and inactive calls.
How the values were obtained:
[1] = target: T1, Sentrin-specific protease 6 (Homo sapiens, UniProt Q9GZR1); test: SAR Analysis of small molecule inhibitors of Sentrin-specific protease 6 (SENP6) using a Luminescent assay. [Related pubchem assays (depositor defined):AID2582, AID2599]; format: functional
T1 sequence (Q9GZR1 whole entry): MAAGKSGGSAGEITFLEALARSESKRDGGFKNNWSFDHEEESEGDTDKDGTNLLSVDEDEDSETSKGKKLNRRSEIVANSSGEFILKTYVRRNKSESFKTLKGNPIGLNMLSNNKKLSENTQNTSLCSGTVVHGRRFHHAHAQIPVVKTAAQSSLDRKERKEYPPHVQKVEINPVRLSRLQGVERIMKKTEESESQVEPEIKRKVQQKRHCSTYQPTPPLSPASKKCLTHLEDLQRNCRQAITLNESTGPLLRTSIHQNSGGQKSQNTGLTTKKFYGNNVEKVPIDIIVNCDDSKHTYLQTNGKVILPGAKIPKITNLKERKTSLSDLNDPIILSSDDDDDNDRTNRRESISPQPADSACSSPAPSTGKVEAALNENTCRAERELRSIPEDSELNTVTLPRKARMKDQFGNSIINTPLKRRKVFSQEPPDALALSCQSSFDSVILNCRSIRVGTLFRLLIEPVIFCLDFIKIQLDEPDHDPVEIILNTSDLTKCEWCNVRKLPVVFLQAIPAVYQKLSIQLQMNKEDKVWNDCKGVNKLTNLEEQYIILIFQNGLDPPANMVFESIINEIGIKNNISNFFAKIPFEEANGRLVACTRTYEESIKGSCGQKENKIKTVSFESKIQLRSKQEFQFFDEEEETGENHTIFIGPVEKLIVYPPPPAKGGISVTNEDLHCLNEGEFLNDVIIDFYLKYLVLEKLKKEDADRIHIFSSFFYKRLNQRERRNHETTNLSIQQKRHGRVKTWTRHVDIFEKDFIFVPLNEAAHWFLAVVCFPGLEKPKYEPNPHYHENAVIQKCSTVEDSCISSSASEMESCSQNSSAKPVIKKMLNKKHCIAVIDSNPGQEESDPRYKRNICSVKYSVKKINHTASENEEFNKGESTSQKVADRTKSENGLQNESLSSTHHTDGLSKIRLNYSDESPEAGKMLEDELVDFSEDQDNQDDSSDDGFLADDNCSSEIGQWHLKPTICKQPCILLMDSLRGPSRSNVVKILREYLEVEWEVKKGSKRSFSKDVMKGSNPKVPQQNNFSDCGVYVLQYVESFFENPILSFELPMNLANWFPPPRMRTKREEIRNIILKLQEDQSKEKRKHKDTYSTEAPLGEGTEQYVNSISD

Caspase-3 = target: T2, Caspase-3 (Homo sapiens, UniProt P42574); test: SAR Analysis of small molecule inhibitors of Sentrin-specific proteases (SENPs) using a Caspase-3 Selectivity assay. [Related pubchem assays (depositor defined):AID2540, AID2599, AID434973, AID489001]; format: functional
T2 sequence (P42574 whole entry): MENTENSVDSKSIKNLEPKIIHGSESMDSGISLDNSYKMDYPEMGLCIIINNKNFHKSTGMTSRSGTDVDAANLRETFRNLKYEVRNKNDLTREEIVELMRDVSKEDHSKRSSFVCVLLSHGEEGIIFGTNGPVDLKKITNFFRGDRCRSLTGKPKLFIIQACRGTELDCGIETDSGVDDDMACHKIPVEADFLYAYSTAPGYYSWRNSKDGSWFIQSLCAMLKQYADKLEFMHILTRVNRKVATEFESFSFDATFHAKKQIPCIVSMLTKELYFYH

[2] = target: T3, Sentrin-specific protease 7 (Homo sapiens, UniProt Q9BQF6); test: inhibition of human SENP7 cleavage activity – biochemical, luminescence, SAR follow-up (AID 504497); format: functional
T3 sequence (Q9BQF6 whole entry): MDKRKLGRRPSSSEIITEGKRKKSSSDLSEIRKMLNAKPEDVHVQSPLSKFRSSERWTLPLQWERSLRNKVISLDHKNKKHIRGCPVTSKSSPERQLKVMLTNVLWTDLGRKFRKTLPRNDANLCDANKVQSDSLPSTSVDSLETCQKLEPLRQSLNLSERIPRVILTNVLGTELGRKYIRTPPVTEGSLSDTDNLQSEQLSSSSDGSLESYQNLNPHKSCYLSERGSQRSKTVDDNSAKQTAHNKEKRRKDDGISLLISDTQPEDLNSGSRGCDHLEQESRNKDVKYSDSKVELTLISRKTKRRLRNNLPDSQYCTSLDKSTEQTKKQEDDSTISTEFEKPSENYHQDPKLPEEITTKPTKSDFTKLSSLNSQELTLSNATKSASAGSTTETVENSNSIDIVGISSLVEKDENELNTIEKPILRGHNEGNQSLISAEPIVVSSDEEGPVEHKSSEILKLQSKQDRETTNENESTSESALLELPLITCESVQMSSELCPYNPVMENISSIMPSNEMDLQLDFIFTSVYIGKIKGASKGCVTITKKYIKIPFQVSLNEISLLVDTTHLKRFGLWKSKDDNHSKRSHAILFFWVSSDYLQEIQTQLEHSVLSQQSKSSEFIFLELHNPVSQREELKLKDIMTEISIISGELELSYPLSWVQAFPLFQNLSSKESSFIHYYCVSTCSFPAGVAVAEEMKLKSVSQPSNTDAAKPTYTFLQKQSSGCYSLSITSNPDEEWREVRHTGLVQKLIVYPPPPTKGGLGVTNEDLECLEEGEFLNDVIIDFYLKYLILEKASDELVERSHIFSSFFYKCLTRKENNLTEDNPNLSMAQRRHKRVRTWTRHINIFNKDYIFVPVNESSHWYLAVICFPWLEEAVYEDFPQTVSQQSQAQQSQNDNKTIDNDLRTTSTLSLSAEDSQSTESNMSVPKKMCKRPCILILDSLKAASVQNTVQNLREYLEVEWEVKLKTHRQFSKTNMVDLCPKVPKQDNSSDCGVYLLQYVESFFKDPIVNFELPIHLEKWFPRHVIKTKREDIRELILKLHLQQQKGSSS

[3] = target: T4, Sentrin-specific protease 8 (Homo sapiens, UniProt Q96LD8); test: inhibition of human SENP8 cleavage activity – biochemical, luminescence, SAR follow-up (AID 504501); format: functional
T4 sequence (Q96LD8 whole entry): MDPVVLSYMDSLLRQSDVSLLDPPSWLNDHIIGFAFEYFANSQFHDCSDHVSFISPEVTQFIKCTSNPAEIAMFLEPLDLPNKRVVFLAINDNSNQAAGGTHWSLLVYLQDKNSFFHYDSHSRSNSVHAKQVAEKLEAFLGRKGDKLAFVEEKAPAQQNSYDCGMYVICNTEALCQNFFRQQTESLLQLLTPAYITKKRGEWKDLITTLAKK

[4] = NIH-3T3 fibroblast cytotoxicity, dose response, cytotoxicity control, cell-based, fluorescence, Alamar Blue, secondary assay (AID 2327); format: functional;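 further: NIH-3T3 mouse fibroblasts cultured with fluconazole at 8 µg/mL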
[5] = target: T5, Serine/threonine-protein phosphatase (Candida dubliniensis (strain CD36 / CBS 7987 / NCPF 3949 / NRRLY-17841) (Yeast), UniProt B9W6M3); test: blockers of CaCl2-induced CDRE-lacZ signaling – S. cerevisiae, luminescence, secondary, dose response (AID 2388); format: functional, cell-based;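 further: yeast reporter cells carrying a calcineurin-responsive lacZ construct stimulated with calcium chloride; luminescent beta-galactosidase reporter signal in whole cells rather than isolated phosphatase activity; potency for inhibition where a drop in reporter signal means calcineurin blockade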
T5 sequence (B9W6M3 whole entry): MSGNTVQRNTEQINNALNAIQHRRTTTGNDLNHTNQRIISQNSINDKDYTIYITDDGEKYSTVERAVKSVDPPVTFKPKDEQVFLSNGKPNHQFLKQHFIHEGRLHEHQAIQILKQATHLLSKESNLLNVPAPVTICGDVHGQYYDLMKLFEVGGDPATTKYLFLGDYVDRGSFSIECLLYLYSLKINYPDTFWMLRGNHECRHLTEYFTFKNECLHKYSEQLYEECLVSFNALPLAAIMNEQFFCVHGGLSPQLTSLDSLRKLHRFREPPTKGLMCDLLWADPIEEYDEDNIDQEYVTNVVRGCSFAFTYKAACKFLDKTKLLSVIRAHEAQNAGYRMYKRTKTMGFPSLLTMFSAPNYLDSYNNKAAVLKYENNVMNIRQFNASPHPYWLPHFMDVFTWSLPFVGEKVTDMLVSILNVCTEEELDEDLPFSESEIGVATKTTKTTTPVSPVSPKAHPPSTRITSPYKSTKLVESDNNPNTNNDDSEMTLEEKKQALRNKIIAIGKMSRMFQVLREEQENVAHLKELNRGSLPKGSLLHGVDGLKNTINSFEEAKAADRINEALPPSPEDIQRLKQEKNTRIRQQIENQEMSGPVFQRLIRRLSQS

[6] = fluconazole-exposed Candida albicans growth modulators – fluorescence, retest, confirmation (AID 2467); format: functional, cell-based
[7] = target: ATP-dependent molecular chaperone HSP82 (Candida albicans (strain WO-1) (Yeast), UniProt C4YTQ8); test: steroid-induced GRE reporter decrease in yeast – S. cerevisiae, luminescence, Hsp90 inhibitor project, dose response (AID 2400); format: functional, cell-based;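 further: beta-galactosidase luminescence from glucocorticoid response element reporter as proxy for Hsp90 function; inhibitor potency where signal loss means Hsp90 inhibition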
Chain of ATP-dependent molecular chaperone HSP82 (C4YTQ8 whole entry): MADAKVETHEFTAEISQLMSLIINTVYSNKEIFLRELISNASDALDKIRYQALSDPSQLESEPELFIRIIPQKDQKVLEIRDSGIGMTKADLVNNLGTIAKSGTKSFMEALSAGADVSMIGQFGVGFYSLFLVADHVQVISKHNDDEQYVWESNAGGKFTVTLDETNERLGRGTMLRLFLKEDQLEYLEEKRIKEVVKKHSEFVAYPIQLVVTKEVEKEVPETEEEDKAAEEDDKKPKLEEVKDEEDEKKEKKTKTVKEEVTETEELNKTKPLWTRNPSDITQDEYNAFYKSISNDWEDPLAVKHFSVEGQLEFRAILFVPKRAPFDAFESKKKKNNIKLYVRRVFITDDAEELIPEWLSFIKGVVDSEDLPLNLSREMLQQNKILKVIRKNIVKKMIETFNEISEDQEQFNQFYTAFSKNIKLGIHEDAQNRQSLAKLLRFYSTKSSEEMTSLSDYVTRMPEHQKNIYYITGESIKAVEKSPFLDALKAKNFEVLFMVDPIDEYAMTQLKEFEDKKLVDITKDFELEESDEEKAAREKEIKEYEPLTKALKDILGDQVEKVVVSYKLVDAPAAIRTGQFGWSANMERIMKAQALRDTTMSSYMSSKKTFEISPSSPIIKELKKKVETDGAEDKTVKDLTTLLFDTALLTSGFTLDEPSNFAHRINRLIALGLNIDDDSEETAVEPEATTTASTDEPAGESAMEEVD

[8] = target: T6, Nuclear receptor subfamily 0 group B member 1 (Homo sapiens, UniProt P51843); test: Luminescence-based cell-based high throughput dose response assay for inhibitors of the orphan nuclear receptor subfamily 0, group B, member 1 (DAX1; NR0B1). [Related pubchem assays (depositor defined):AID504766, AID504790]; format: functional
T6 sequence (P51843 whole entry): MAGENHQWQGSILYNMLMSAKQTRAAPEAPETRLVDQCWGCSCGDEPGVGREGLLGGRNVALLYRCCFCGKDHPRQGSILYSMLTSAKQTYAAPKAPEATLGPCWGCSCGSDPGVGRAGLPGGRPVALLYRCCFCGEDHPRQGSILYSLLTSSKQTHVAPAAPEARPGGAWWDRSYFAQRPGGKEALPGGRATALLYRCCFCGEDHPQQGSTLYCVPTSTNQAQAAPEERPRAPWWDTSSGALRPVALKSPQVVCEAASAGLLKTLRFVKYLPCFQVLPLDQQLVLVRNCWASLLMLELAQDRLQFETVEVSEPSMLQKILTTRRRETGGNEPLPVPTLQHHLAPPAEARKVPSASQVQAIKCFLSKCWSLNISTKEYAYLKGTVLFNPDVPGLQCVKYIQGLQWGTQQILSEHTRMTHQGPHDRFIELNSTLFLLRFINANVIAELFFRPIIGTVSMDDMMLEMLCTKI

HEK293 = test: cells; format: functional, cell-based; details: Homo sapiens
[9] = target: T7, DNA repair and recombination protein RAD54-like (Homo sapiens, UniProt Q92698); test: RAD54 Holliday junction migration blockers – biochemical, fluorescence, cherry-picked samples, dose series, confirmation (AID 651657); format: functional
T7 sequence (Q92698 whole entry): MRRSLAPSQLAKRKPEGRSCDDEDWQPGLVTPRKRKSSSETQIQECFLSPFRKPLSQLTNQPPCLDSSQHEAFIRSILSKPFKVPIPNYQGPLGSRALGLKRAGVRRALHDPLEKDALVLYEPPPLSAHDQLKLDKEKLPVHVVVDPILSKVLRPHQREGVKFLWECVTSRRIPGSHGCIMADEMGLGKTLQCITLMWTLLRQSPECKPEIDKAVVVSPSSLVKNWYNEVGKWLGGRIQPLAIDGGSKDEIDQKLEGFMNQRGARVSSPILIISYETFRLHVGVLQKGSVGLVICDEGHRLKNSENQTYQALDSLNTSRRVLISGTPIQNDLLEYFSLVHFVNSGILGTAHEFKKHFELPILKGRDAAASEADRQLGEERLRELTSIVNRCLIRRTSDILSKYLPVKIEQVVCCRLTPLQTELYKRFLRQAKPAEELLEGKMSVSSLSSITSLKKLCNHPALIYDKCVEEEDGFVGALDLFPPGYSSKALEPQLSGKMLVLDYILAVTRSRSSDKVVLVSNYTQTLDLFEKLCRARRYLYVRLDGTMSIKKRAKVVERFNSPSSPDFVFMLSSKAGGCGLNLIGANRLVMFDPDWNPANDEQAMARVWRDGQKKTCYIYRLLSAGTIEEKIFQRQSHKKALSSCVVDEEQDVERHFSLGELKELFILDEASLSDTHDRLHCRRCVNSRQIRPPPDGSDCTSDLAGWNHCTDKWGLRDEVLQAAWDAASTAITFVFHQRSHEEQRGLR

cells [10] = format: functional, cell-based
[11] = test system: Streptococcus sp. 'group A'; test: Streptococcus pyogenes SK(-)GAS viability under kanamycin – luminescence, BacTiterGlo, confirmation, counter-screen for streptokinase expression inhibitor project, dose response (AID 1900); format: functional, organism-based
[12] = MIN6 cell viability loss – mouse insulinoma, cytotoxicity control, dose response (AID 2122); format: functional;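 further: confirmatory high-throughput counterscreen run to flag cytotoxic compounds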
Streptococcus = test: GAS UMAA2166 growth inhibition – luminescence, BacTiterGlo, counter-screen for streptokinase expression inhibitor project, dose response (AID 1915); format: functional, organism-based;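 further: potency for reduction of bacterial viability or growth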
cells [13] = format: functional, cell-based; remark: listed apart in the source
[14] = decrease of insulin promoter-GFP reporter – imaging, high-content screening, mouse beta cells (AID 1628); format: functional; details: MIN6

- IC50 [1]: > 99 µM (inactive)
- IC50 (Caspase-3): > 99 µM (inactive)
- IC50 [2]: > 99 µM (inactive)
SMILES: CCCC(=O)Nc1ccc(-c2nc3cc(Cl)ccc3o2)cc1
- IC50 [3]: > 99 µM (inactive)

SMILES: Cc1ccc(NC(=O)CNC(=O)c2ccc(Oc3ccccc3)cc2)nc1
- EC50 [4]: > 150 µM (inactive)
- EC50 [5]: > 180 µM (inactive)
- EC50 [6]: 1.24 µM (active)
- EC50 [7]: 21.7 µM (active)

- IC50 [1]: 1.75 µM (active)
- IC50 (Caspase-3): 1.09 µM (active)
- IC50 [2]: 1.55 µM (active)
SMILES: Oc1ccccc1-c1nc(-c2ccccc2)no1
- IC50 [3]: 1.86 µM (active)

SMILES: Fc1ccc(Nc2nc(-c3cccnc3)cs2)cc1
- IC50 [8]: > 67.5 µM (inactive)
- IC50 (HEK293): > 67.5 µM (inactive)

SMILES: CCCN(CCC)CCCNC(=O)c1cc2c(=O)n(C)c3ccccc3c2n1C
- IC50 [8]: > 67.5 µM (inactive)
- AC50 [9]: 36.8 µM (active)
- IC50 (HEK293): 24.7 µM (inactive)

SMILES: Oc1ccc(N=Nc2ccc3c(c2)OCCO3)c2cccnc12
- EC50 [4]: 13.7 µM (inconclusive)
- EC50 (cells [10]): 5.17 µM (active)
- EC50 [5]: > 180 µM (inactive)
- EC50 [11]: 352 nM (active)
- EC50 [6]: 1.24 µM (active)
- IC50 [12]: 1.37 µM (active)
- EC50 (Streptococcus): 1.15 µM (active)
- EC50 [7]: 12.8 µM (active)
- EC50 (cells [13]): 45.6 µM (active)
- IC50 [14]: 2.15 µM (active)

SMILES: Cc1ccc(CCNC(=O)CC2Oc3ccc(C)cc3NC2=O)cc1 (centres undefined)
- IC50 [8]: > 67.5 µM (inactive)
- IC50 (HEK293): > 67.5 µM (inactive)

Source: ChEMBL document CHEMBL1201862, “PubChem BioAssay data set” (2004)
